Assays:
p300 = p300 (Homo sapiens, UniProt Q09472); experiment: […]acetyl-CoA nucleosome acetyltransferase assay; assay type: biochemical
CBP = CBP (Homo sapiens, UniProt Q92793); experiment: H3K18ac Western blot of nucleosome acetylation by purified CBP; assay type: biochemical
Chain of CBP (Q92793 2-2442): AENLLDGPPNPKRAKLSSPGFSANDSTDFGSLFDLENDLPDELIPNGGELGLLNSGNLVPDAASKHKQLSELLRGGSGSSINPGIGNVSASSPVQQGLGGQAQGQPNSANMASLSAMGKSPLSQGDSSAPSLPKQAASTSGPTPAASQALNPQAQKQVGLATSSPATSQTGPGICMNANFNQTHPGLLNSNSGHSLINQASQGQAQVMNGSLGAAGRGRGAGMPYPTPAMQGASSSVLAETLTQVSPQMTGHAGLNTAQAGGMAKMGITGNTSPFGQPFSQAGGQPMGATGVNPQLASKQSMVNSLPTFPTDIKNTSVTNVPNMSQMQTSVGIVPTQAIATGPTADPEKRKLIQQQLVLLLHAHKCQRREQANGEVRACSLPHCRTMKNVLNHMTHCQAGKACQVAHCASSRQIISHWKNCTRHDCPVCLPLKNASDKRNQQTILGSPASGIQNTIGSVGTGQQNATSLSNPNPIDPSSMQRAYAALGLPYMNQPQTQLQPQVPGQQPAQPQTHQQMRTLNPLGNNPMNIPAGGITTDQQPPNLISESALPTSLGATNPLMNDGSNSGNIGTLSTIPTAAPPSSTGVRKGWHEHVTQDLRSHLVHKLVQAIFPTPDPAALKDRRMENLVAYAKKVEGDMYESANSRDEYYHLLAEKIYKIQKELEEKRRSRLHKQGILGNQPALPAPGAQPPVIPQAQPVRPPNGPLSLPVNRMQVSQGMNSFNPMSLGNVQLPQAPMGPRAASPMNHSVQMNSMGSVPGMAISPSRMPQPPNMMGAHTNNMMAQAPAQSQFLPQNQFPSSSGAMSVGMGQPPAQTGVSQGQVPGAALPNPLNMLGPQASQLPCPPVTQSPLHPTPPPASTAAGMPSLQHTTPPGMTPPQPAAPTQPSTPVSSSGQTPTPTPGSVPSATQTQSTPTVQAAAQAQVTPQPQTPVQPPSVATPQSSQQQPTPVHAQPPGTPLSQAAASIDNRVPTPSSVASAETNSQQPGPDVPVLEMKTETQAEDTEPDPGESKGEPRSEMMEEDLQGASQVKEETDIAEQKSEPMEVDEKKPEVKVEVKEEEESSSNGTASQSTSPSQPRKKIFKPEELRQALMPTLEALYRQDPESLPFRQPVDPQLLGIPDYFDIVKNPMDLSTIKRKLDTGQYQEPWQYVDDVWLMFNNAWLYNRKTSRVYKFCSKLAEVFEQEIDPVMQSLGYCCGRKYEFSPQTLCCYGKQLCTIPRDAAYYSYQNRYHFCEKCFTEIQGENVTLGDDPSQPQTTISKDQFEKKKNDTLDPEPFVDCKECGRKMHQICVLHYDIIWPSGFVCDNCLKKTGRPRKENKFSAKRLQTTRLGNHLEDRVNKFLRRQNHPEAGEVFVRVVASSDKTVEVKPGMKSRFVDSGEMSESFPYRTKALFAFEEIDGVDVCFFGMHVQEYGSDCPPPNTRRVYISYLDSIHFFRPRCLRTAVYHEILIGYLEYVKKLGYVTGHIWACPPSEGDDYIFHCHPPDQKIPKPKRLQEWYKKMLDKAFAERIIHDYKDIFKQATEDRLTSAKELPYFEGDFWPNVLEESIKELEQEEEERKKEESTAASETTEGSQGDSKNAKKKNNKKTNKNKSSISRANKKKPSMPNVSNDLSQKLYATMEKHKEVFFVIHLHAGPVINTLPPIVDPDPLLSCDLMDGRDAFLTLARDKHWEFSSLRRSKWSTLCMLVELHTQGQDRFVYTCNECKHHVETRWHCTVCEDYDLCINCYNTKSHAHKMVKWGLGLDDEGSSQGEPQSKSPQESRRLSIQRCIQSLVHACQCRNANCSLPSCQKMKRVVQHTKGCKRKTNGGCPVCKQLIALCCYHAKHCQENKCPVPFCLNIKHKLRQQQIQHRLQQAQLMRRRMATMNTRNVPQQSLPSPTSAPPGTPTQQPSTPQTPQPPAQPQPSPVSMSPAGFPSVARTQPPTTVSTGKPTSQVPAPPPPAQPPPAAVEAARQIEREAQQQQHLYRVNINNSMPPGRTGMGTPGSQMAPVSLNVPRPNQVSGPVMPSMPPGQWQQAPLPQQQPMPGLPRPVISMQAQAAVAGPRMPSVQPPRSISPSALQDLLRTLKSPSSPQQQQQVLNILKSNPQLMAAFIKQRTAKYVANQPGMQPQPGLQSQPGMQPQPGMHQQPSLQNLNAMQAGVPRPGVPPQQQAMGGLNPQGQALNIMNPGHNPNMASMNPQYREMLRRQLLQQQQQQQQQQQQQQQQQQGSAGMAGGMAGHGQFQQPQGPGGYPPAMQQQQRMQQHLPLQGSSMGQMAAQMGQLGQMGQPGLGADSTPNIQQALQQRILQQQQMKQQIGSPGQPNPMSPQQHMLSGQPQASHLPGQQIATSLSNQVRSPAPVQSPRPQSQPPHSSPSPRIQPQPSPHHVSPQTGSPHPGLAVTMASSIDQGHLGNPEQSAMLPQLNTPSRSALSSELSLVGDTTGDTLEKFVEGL

Chain of p300 (Q09472 2-2414): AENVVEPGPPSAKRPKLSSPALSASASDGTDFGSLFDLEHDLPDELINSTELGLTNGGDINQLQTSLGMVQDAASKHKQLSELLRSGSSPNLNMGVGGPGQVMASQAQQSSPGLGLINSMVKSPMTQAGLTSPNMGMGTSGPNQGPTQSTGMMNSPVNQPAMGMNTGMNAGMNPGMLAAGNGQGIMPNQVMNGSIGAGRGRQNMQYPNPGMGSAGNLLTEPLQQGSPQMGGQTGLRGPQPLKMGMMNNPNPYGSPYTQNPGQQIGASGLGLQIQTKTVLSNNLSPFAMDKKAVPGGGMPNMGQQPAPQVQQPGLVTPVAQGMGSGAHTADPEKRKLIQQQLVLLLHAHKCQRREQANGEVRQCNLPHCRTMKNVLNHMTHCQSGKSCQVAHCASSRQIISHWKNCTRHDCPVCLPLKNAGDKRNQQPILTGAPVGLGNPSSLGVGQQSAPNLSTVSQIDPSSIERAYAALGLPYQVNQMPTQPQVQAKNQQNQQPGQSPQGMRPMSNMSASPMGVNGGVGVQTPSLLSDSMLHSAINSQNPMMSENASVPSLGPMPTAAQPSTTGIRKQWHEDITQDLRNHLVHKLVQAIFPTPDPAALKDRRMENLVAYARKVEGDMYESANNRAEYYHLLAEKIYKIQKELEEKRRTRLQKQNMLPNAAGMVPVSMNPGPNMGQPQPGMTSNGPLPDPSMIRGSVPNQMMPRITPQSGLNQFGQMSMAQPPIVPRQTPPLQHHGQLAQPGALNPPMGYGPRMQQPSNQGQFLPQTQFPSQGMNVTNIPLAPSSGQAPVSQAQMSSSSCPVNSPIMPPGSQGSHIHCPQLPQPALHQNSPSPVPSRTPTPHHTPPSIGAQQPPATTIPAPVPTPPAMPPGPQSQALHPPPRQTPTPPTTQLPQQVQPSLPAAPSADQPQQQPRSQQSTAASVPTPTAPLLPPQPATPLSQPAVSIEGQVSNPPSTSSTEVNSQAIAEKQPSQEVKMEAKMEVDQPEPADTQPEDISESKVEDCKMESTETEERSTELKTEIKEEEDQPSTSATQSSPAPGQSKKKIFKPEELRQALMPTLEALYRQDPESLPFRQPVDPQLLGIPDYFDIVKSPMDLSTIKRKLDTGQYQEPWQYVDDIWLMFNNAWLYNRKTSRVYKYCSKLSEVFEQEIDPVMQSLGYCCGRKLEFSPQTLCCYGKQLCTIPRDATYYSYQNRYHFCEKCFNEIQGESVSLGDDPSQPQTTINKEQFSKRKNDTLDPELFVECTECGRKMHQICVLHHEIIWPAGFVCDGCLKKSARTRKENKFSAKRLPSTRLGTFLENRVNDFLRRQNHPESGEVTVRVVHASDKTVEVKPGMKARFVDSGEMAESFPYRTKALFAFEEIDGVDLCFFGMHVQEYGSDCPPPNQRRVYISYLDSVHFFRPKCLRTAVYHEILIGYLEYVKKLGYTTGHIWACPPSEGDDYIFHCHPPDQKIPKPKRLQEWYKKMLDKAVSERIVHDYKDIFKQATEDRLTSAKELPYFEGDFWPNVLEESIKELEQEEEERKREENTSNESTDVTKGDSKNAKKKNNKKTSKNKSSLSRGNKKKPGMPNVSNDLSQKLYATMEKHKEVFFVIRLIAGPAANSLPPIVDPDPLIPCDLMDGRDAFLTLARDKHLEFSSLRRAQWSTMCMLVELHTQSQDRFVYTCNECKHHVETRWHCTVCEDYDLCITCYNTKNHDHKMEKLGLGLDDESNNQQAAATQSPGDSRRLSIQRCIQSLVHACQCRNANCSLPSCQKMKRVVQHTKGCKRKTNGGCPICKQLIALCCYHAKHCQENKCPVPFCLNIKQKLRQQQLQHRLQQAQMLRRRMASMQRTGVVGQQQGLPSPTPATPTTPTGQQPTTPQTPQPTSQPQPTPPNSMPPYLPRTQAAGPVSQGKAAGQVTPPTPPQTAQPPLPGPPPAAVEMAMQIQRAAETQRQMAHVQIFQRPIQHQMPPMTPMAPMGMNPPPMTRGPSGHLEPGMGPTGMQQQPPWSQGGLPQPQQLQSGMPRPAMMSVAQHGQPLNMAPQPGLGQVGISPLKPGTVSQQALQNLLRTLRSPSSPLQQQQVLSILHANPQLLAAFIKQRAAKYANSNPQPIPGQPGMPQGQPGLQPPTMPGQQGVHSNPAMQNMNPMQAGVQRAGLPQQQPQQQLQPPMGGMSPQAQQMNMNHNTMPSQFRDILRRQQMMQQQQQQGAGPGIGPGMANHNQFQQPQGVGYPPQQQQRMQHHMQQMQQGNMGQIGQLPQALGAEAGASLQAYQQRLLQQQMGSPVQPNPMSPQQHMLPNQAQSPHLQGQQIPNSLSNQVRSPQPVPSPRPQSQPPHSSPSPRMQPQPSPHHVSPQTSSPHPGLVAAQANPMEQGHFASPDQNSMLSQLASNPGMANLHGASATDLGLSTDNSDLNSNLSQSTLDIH

CCC(=O)N1CCOc2c(cc(-c3ccc(OC)c(OC)c3)cc2OC[C@H]2CCCN(C)C2)C1 [I-CBP112, 1-[7-(3,4-dimethoxyphenyl)-9-{[(3S)-1-methylpiperidin-3-yl]-methoxy}-2,3,4,5-tetrahydro-1,4-benzoxazepin-4-yl]propan-1-one]
EC50 (p300): 11 ± 3 µM | EC50 (CBP): ~2 µM
